Experiment [1] concerns DRG neurons. Description: Axon growth in dissociated DRG cultures. The experiment is classed as cell-based, rat. Here is the method: Cell culture. For primary neuronal cultures, L4-5 DRG were harvested in Hybernate-A medium (BrainBits) and then dissociated as described. After centrifugation and washing in DMEM/F12 (Life Technologies), cells were resuspended in DMEM/F12, 1×N1 supplement (Sigma), 10% fetal bovine serum (Hyclone), and 10 μM cytosine arabinoside (Sigma). Dissociated DRGs were plated immediately on laminin/poly-L-lysine-coated coverslips or transfected (see below) and then plated on coated coverslips.
[…] Neurite outgrowth was assessed 24 h after addition of peptides. For the cortical cultures, 10 μM peptide was applied to the axonal compartment at 3 d in vitro (DIV) and axonal growth was assessed at 6 DIV. For iMotor neurons, 20 μM peptides were immediately added and neurite growth was assessed 24 h later.
For neurite outgrowth, images from 60 h DRG cultures were analyzed for neurite outgrowth using WIS-Neuromath. Axon morphology was visualized using GFP and/or NF immunofluorescence as described. Differentiated hiPSC neuron image acquisition and neurite length quantification was performed using Arrayscan XTI (Thermo Fisher).

For experiment [2], the system named is G3BP1, TIA1, FMRP, FXR, TDP43 and FUS-TLS aggregates in E18 cortical neurons. Description: RNA binding protein aggregates along axons of Aβ oligomer-treated cortical neurons. The experiment is classed as cell-based, rat. The note with it: 1 μM Aβ oligomer 2 hours, then peptide for additional 4 hours. The protocol:
The data in FIGS. 13A-F and 14A-F raise the possibility that stress granule targeting therapies like the cell permeable G3BP1 190-208 peptide may decrease or even prevent loss of neurons across different types of neurodegenerative diseases. To address this possibility, the current disclosure asked if the cell permeable G3BP1 190-208 peptide could disassemble pathological protein aggregates in neurons. For this, 7 day cortical neuron cultures were treated with 1 μM A[…] oligomer for 2 hours and then treated with cell permeable G3BP1 190-208 peptide or a scramble sequence cell permeable peptide for an additional 4 hours. […] Thus, the cell permeable G3BP1 190-208 peptide can not only prevent RNA binding protein aggregation in axons after exposure to neurotoxins associated AD and PD, but it can also trigger disassembly of these pathological aggregates after they begin to form.
Representative confocal images for G3BP1. […] Quantifications for co:localization of FMRP, FXR, TDP43, FUS-TLS and TIA1 with G3BP1 in axons of E18 cortical neurons treated as in C are shown as average Pearson's coefficient±SEM (N≥120 aggregates over three repetitions and *p≤0.01, **p≤0.005, ***p≤0.001 for entire population distributions by Fishers exact test for FIG. 15B and FIG. 15D; […] neurons over 3 repetitions and *p≤0.01 **p≤0.005, ***p≤0.001 by one-way ANOVA with Tukey HSD post-hoc for FIG. 15E).

In experiment [3] the test system is TDPΔNLS MN-muscle co-cultures. Description: Co-culture contraction analysis. The experiment is classed as cell-based, mouse. The conditions noted are these: 20 μM G3BP1 peptides in NMJ compartment. Here is the method:
Muscles in co-culture were kept in BA medium for 7 days. To aid NMJ formation, media in all compartments was then replaced to poor neurobasal (PNB) medium, which contained only 1% P/S and 1% Glutamax. Doxycycline was applied to TDP-43ΔNLS cultures only at the proximal MN compartment, in a concentration of 0.1 μg/mL, immediately after plating and throughout the entire experimental timeline. For TDPΔNLS recovery experiments (FIGS. 7-8), Doxycline was […] at the proximal MN compartment after 5 DIV, and the cultures were grown until 11 DIV. […] NMJ activity was assessed by quantifying the percent of innervated and contracting myocytes in co-culture as previously described36. Briefly, after 12 days in co-culture, phase-contrast time lapse image series were acquired at a frame rate of 25 frames-per-second (25 FPS) using a X20 air objective. During imaging, cultures were maintained in controlled temperature and CO2 environment. For obtaining contraction time traces, we used the “Time Series Analyzer V3” plugin for FIJI ImageJ V.2.0.0, and marked a region of interest on a small, high contrast and mobile region on the muscle, and then obtained the mean values for each time point.

For experiment [4], the system named is E18 midbrain neurons. Description: MPP+-induced neurite degeneration of midbrain neurons. Type of experiment: cell-based, rat. The note with it: DIV7 E18 midbrain neurons, 100 μM MPP+ 16-18 hours, with 10 μM peptide. The protocol:
To test whether the triggering disassembly of stress granules would be protective in Parkinson's and Alzheimer's disease, the inventors employed 1-methyl-4-phenylpyridinium (MPP+)-induced and amyloid β (Aβ)-mediated neurotoxicity models. Rat embryonic day 18 (E18) midbrain neurons cultured for 7 days were treated for 16-18 hours with 100 μM MPP+, see FIGS. 1A and B, while E18 cortical neurons were treated with 1 μM Aβ oligomer, see FIGS. 2A-2B, with or without 10 μM G3BP1 190-208 or 168-189 peptide. As a control, the inventors used non-treated neurons.
FIG. 1: Cell permeable G3BP1 190-208 peptide rescues MPP+-induced degeneration of midbrain neurons. (A) Representative images for NF-labeled (white) DIV7 E18 midbrain neurons. DIV7 midbrain cultures were treated with 100 μM MPP+ (ii) or control (i) and […] 190-208 G3BP1 peptide (iv) or 168-189 control peptide (iii) [scale bar=100 μm]. (B) Quantification of neurite degeneration in midbrain neurons in control or 100 μM MPP+-treated neurons after addition of 190-208 G3BP1 or 168-189 control peptide. […] (N≥95 over 3 cultures; by one-way ANOVA with Tukey HSD post-hoc).

Experiment [5] concerns E12.5 motor neurons. In words: MPP+-induced degeneration of motor neuron neurites (in vitro ALS model). Type of experiment: cell-based, mouse. The conditions noted are these: DIV7 E12.5 motor neurons, 100 μM MPP+ 16-18 hours, with 10 μM peptide. The protocol:
Non-treated cultures were used as controls (FIG. 3A).
(A) Quantification of mitotoxin/neurotoxin MPP+-induced degeneration of DIV7 E12.5 motor neuron neurites after exposure of cultures to 100 μM MPP+ and either 10 μM 190-208 G3BP1 or 168-189 control peptide. As controls, neurons treated with solvents were used. (B) Representative images of G3BP1 (green) and NF-labeled (red) E12.5 motor neurons under control or after treatment with 100 μM MPP+ [scale bar=10 μm]. (C) distribution of sizes of endogenous G3BP1 aggregate per 100 μm neurite is shown as indicated bins from motor neurons cultures as treated in (B). (N≥80 neurites over three repetitions; by one-way ANOVA with Tukey HSD post-hoc). […] (D) Endogenous G3BP1 aggregate sizes per 100 μm neurite indicated as bins for motor neurons either untreated or treated with MPP+ alone or with addition of 10 μM 190-208 G3BP1 or 168-189 control peptide. […] (N≥90 over 3 cultures; by one-way ANOVA with Tukey HSD post-hoc)

[6] abbreviates: 10 μM Tat-fused peptide added to DRG cultures immediately after plating.

“Also recorded” adds a separate entry of the source.

Experimental findings from patent publication US20230190887A1, “TARGETING G3BP AGGREGATION TO PREVENT NEURODEGENERATION” (priority 2019, published 2023) are described below.

On to “YGNKKNNNQNNN-VVEPEPEPEPEPEPEPVSE [G3BP1 190-208 peptide]”, for which the axon length result in experiment [1] (setting [6]) is listed as “increased axon length”; in experiment [1] (delayed application (peptide added at 12 h, assessed at 36 h), naive and preinjured DRG neurons) it was “significantly increased axon length”. Also, in experiment [1] (setting [6]), the “number of neurites per neuron” value is given as “increased the number of neurites per neuron”. Further, the “TIA1, FMRP, FXR, TDP43 and FUS-TLS colocalization with G3BP1” value in experiment [2] is listed as “significantly decreased”. Also, the “size of G3BP1, TIA1, FMRP, FXR, TDP43 and FUS-TLS aggregates along axons” value in experiment [2] was “significantly decreased size; also recorded: reduction in amyloid beta treatment dependent G3BP1-associated protein aggregates”. In addition, the “percent of innervated muscles that contract” value in experiment [3] was “reversed”. The results for the neurite degeneration entry in experiment [4] (listed as 190-208 peptide) and in experiment [4] (listed as G3BP1 190-208) were “significant decrease in MPP+-induced degeneration” and “prevented neurite degeneration”, respectively. Moreover, the “MPP+-induced degeneration of motor neuron neurites” value is “prevents mitotoxin-induced degeneration” in experiment [5] and “protected against MPP+-induced degeneration” in experiment [5] (listed as G3BP1 190-208).
